Reference: PubChem BioAssay (NCI)
“And” between values parts separate entries of the source, which are not always exact repeats. Identical values can stand only once.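 Tested at 5 concentrations; 48 h exposure; 96-well plates; endpoints linearly interpolated, else capped at highest concentration. GI50 = concentration required for 50% inhibition of growth. TGI marks complete inhibition of growth.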

How the values were obtained:
Experiment in all cases: DTP human tumour cell line panel, 48 h
[1] = test system: CAKI-1 renal
[2] = test system: MOLT-4 leukemia
[3] = test system: RPMI-8226 leukemia
[4] = test system: UACC-257 melanoma
[5] = test system: UO-31 renal
[6] = test system: SR leukemia
[7] = test system: MCF7 breast
[8] = test system: MDA-MB-231 breast
[9] = test system: PC-3 prostate
[10] = test system: MDA-MB-435

Row | Compound | TGI [1] | TGI [2] | TGI [3] | TGI [4] [µM] | TGI [5] [µM] | TGI [6] | also measured
1 | CC1(C)NC(=O)N(CCCCCCN2C(=O)NC(C)(C)C2=O)C1=O | > 100 µM | > 100 µM | > 100 µM | > 100 | > 100 |  | 
2 | OCC1OC2c3ccccc3COC2C1OCc1ccccc1 (stereo not drawn) | > 100 µM | > 100 µM | > 100 µM | > 100 | > 100 | > 100 µM | 
3 | O=C(Cc1ccccc1[N+](=O)[O-])C(CO)c1ccccc1[N+](=O)[O-] (stereo not drawn) | > 100 µM | > 100 µM | > 100 µM | > 100 | > 100 |  | 
4 | N#CCCN(CCC#N)c1ccc(/C=C(/NC(=O)c2cc([N+](=O)[O-])ccc2Cl)C(=O)NN)cc1 | > 100 µM | > 100 µM | > 100 µM | > 100 | > 100 | > 100 µM | 
5 | CC(=O)c1ccccc1NC(=O)C(=O)C(C(=O)c1ccc2ccccc2c1)C1OC(=O)c2ccccc21 (stereo not drawn) | 48.1 µM | > 100 µM | 52.7 µM | 61.8 | 29.1 |  | 
6 | COC(=O)Cc1c([C@@]2(C)CCCC(C)(C)C2)ccc2c1C(=O)OC2 |  | 18.2 µM | 14.6 µM | 22.8 | 15.3 |  | 
7 | N/C=N/S(=O)(=O)c1ccc(NC(=O)COC(=O)c2cccc3c(=O)c4ccccc4[nH]c23)cc1 |  | > 100 µM | > 100 µM | > 100 | > 100 |  | 
8 | O=[N+]([O-])c1cc(-c2nc(=S)[nH][nH]2)ccc1O | > 100 µM |  |  | > 100 | > 100 |  | 
9 | CC1CCC2C(C)C(=O)OC3OC4(C)CCC1C32OO4 (stereo not drawn) | > 100 µM | > 100 µM | > 100 µM | > 100 | > 100 | > 100 µM | GI50 [7]: > 100 µM; TGI [7]: > 100 µM; TGI [8]: > 100 µM; TGI [9]: > 100 µM; GI50 [6]: > 100 µM; GI50 [4]: > 100 µM
10 | NC1N=Nc2ccccc21 (stereo not drawn) | > 100 µM | > 100 µM | > 100 µM | > 100 | > 100 | > 100 µM | 
11 | CNS(=O)(=O)OCC1OC(n2cnc3cncnc32)C(O)C1O (stereo not drawn) | > 100 µM | > 100 µM | > 100 µM | > 100 | > 100 |  | GI50 [1]: > 100 µM; GI50 [7]: > 100 µM; TGI [7]: > 100 µM; GI50 [8]: > 100 µM; TGI [8]: > 100 µM; GI50 [10]: > 100 µM; TGI [10]: > 100 µM; GI50 [2]: > 100 µM; GI50 [9]: > 100 µM; TGI [9]: > 100 µM; GI50 [3]: > 100 µM; GI50 [4]: > 100 µM; GI50 [5]: > 100 µM
12 | COc1cc2c(c(O)c1Cl)C(=O)c1c(O)cc(C[C@H](C)O)cc1[C@H]2[C@H]1c2cc(C[C@H](C)O)cc(O)c2C(=O)c2c1cc(OC)c(Cl)c2O | 11.4 µM and > 100 µM | 75 µM and > 100 µM | 75 µM and 74.4 µM |  |  | 75 µM and > 100 µM | TGI [7]: 75 µM and 94.4 µM; TGI [10]: 16 µM and 98.3 µM; TGI [9]: 75 µM and > 100 µM
13 | COc1ccc2c(c1)[n+]([O-])c(-c1cccc(Cl)c1)c(N)[n+]2[O-] | > 100 µM | > 100 µM |  | 64.7 | > 100 | > 100 µM | 
14 | O=C(NC(=Nc1ccccc1)SCSC(=Nc1ccccc1)NC(=O)c1ccco1)c1ccco1 | > 100 µM | > 100 µM | > 100 µM | > 100 | > 100 |  | 
15 | O=C(CCC(=O)Nc1ccc(Cl)c(Cl)c1)CC(=O)c1ccc2ccccc2c1 | > 100 µM | > 100 µM | > 100 µM | > 100 | > 100 |  | 
16 | COc1ccc(Nc2nc3cc(C(F)(F)F)ccc3nc2-c2ccccc2)cc1OC | 68.8 µM | > 100 µM |  | 99.4 | > 100 | > 100 µM | 
17 | CN1C(=O)CC2(C)c3cc(O)cc(Br)c3N(C)C12 (stereo not drawn) |  | > 100 µM |  | > 100 | > 100 |  | 
18 | C/C(CCn1[nH]c(=O)ccc1=O)=N\NC(=O)C(N)=O | > 100 µM |  |  | > 100 | > 100 |  | 
19 | COc1cc2c3c(n(CCCN4CCNCC4)c(=O)c2cc1OC)-c1cc2c(cc1C3=O)OCO2 | 2.02 µM | 0.533 µM | 1.63 µM | 15.5 | 10.6 |  | GI50 [1]: 0.128 µM; GI50 [7]: 0.0119 µM; TGI [7]: 7.66 µM; GI50 [8]: 0.803 µM; TGI [8]: 2.23 µM; GI50 [10]: 3.27 µM; TGI [10]: 11.3 µM; GI50 [2]: 0.005 µM; GI50 [9]: 0.94 µM; TGI [9]: 10.1 µM; GI50 [3]: 0.16 µM; GI50 [4]: 7.08 µM; GI50 [5]: 1.19 µM
20 | O=C1C(=c2ccc(=C3C(=O)c4ccc([N+](=O)[O-])cc4[N+]3=O)cc2)N([O-])c2cc([N+](=O)[O-])ccc21 | > 100 µM | > 100 µM |  | > 100 | > 100 |  | GI50 [1]: > 100 µM; GI50 [2]: > 100 µM; GI50 [4]: > 100 µM; GI50 [5]: > 100 µM
21 | O=C(O)CN(c1ccccc1)S(=O)(=O)c1cccc([N+](=O)[O-])c1 | > 100 µM | > 100 µM | > 100 µM | > 100 | > 100 |  | 
22 | COc1cccc(C=O)c1C(=O)c1cc(O)ccc1O | > 57.4 µM | 27.5 µM |  | 46.3 | 33.6 | 24.1 µM | 
